Laboratory results from patent publication US20180243190A1, “ACTIVATORS OF NRF2-DEPENDENT PHOTOPROTECTION AND RELATED USES THEREOF” (THE ARIZONA BOARD OF REGENTS ON BEHALF OF THE UNIVERSITY OF …, priority 2015, published 2018).

Assays:
cutaneous NRF2 = experiment: Cutaneous NRF2 activation after systemic administration (immunoblot, IHC, RT-PCR of skin); type: in vivo, SKH-1 mice
Excerpt: To explore the potential systemic photoprotective activity of bixin in a murine skin sunburn model, the feasibility of upregulating cutaneous NRF2 activity by systemic administration was first examined. It has been reported earlier that efficient cutaneous accumulation of dietary carotenoids requires prolonged nutritional supplementation over weeks and that pharmacokinetic parameters of cutaneous delivery of dietary carotinoids differ between humans and mice. Therefore, in order to circumvent the more complex pharmacokinetics associated with dietary supplementation, an intraperitoneal (i.p.) route for bixin systemic administration followed by examination of cutaneous NRF2 status was chosen. After i.p. injection of bixin (200 mg/kg) performed in Nrf2^+/+ and Nrf2^−/− mice, plasma was collected at 0, 1, 2, 4, 8, 16, 24, 48 and 72 h after injection followed by HPLC-photodiode array detection (FIG. 4A-C). […] Next, efficacy of various bixin treatment regimens (differing with regard to total dose and time after injection) for maximum activation of the NRF2 pathway in murine skin was determined (FIG. 4D).
Next, the feasibility of bixin-induced cutaneous protection was studied in a solar UV photodamage model. Nrf2^+/+ and Nrf2^−/− mice were i.p. injected with either corn oil (carrier control) or bixin (200 mg/kg) 48 h before solar UV exposure (240 mJ/cm^2 UVB; 4.4 J/cm^2 UVA). 24 h after UV exposure back skin tissue was then collected followed by immunohistochemical (IHC) analysis. […] Moreover, UV exposure alone activated the NRF2 response in murine skin, effects not detectable in Nrf2^−/− mice (FIG. 5).
Total RNA was extracted from HaCaT cells and mouse skin tissues using TRIzol (Invitrogen). Equal amounts of mRNA were used to generate cDNA using the M-MLV Reverse Transcriptase synthesis kit according to the manufacturer's instructions (Promega). RT-PCR and primer sequences of NRF2, KEAP1, GCLM, AKR1C1 and GAPDH were described previously to evaluate mRNA expression using the LightCycler 480 system (Roche). Quantification of cDNA amount for mouse Nrf2, Keap1, Gclm, and Akr1c1 in each skin tissue sample was performed using the KAPA SYBR FAST qPCR Kit (Kapa Biosystems).
Nrf2^+/+ and Nrf2^−/− SKH-I mice were obtained by breeding Nrf2 heterozygous mice generated by back-crossing Nrf2^−/− C57BL/6 mice onto the SKH-1 hairless mouse genetic background for at least six generations (JAX® Mice, The Jackson Laboratory). All animals received water and food ad libitum and were handled according to the Guide for the Care and Use of Laboratory Animals; the protocols were approved by the University of Arizona Institutional Animal Care and Use Committee. Eight-week-old Nrf2^+/+ and Nrf2^−/− mice were randomly allocated into four groups (n=6): (i) control (corn oil); (ii) bixin (200 mg/kg, dissolved in corn oil); (iii) UV; (iv) bixin+UV. Bixin was administered through intraperitoneal (i.p.) injection 48 h before UV exposure.
24 h after UV exposure, the mice were euthanized and back skin was collected and divided into two parts: one part was frozen in liquid nitrogen for total RNA extraction and protein analysis; the other part was fixed in 10% buffered formalin and embedded in paraffin for histological and immunohistochemical analyses. Tissue sections (4 μm) were baked and deparaffinized. Hematoxylin and eosin (H&E) staining was performed for pathological examination. […]

KEAP1-C151S = molecular target: T1, KEAP1-C151S (Homo sapiens, UniProt Q14145, C151S); type: cell-based; conditions: SF 5 μM, As 5 μM, bixin 40 μM; 16 h
T1 construct: expressed in transfected cells; host or cells: HaCaT human keratinocytes
T1 sequence (Q14145 whole entry C151S): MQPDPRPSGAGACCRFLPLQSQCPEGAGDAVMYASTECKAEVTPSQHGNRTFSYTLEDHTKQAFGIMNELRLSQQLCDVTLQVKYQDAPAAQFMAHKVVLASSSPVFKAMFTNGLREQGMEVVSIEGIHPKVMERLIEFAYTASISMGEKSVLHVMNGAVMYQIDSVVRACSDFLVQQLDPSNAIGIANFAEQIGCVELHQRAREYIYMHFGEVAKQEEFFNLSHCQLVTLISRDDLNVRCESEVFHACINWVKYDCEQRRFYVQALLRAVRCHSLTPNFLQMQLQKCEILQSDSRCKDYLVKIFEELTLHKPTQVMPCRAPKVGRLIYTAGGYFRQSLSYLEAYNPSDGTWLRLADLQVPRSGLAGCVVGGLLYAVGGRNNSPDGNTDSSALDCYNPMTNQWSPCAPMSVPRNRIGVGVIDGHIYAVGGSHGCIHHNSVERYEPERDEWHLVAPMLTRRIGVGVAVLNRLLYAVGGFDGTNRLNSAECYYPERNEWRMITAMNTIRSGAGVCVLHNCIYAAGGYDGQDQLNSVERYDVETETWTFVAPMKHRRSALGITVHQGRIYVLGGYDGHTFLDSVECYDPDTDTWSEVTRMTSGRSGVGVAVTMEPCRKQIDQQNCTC
Excerpt: (§1) Since it has been shown previously that NRF2 activation by canonical inducers (including SF and tBHQ) depends on C (Cys)-151, a critical cysteine residue in KEAP1, the mechanistic involvement of KEAP1-C151 bixin-based NRF2 activation was examined. HaCaT cells were cotransfected with expression vectors for either KEAP1 wild type (KEAP1-WT) or a mutant KEAP1 (KEAP1-C151S; Cys-151 mutated to serine) along with ARE-firefly luciferase and Renilla luciferase reporters to assess NRF2 transcriptional activity (FIG. 3G). After exposure to SF (5 μM), As (sodium arsenite; 5 μM), or bixin (40 μM; all 16 h), NRF2 transcriptional activity was enhanced by all treatments in KEAP1-WT cells, whereas NRF2 activation by SF or bixin was abolished in KEAP1-C151S cells.
(§2) Transfection of cDNA was performed using Lipofectamine 3000 (Invitrogen) according to the manufacturer's instructions. Activation of NRF2 transcriptional activity was performed as previously published. Briefly, HaCaT cells were cotransfected with expression vectors for either KEAP1 wild type (KEAP1-WT) or KEAP1 with a mutation that generates a protein that contains a serine residue instead of a cysteine (KEAP1-C151S), along with NQO1-ARE firefly luciferase and Renilla luciferase reporters. At 24 h post-transfection, cells were left untreated or treated with SF (5 μM), As (5 μM), or bixin (40 μM) for 16 h. The cells were then lysed for analysis of the reporter gene activity using the Promega dual-luciferase reporter gene assay system.

[1] = molecular target: T2, KEAP1 wild type (KEAP1-WT) (Homo sapiens, UniProt Q14145); type: cell-based; conditions: SF 5 μM, As 5 μM, bixin 40 μM; 16 h
T2 construct: expressed in transfected cells; host or cells: HaCaT human keratinocytes
T2 sequence (Q14145 whole entry, species assumed): as the sequence (Q14145 whole entry C151S) above, with S151C counted along it
Excerpt: as §1, §2

COC(=O)/C=C/C(C)=C\C=C\C(C)=C\C=C\C=C(C)\C=C\C=C(C)\C=C\C(=O)O [bixin]
skin mRNA levels of Nrf2 (cutaneous NRF2; 200 mg/kg i.p.): did not increase
skin protein or mRNA levels of Keap1 (cutaneous NRF2; 200 mg/kg i.p.): no effects
upregulation of cutaneous protein levels of NRF2 and its targets (GCLM and AKR1C1), comparison of regimens (cutaneous NRF2; 200 mg/kg, 72 h after injection, Nrf2+/+ mice): most effective
cutaneous NRF2 pathway (NRF2, GCLM, AKR1C1 protein and mRNA) (cutaneous NRF2; Nrf2+/+ mice, 200 mg/kg i.p.): dramatically induced
activation of NRF2 pathway related activity within skin cells (cutaneous NRF2; dosage amounts less than 10 mg/kg): insufficient
NRF2 activation in KEAP1-C151S cells (KEAP1-C151S): abolished
NRF2 transcriptional activity in KEAP1-WT cells [1]: enhanced
